Broadly, the melting point is the temperature of the solid-liquid transition. In turn, `O=C(Nc1ccc(C2CC(F)(F)C2(F)F)cc1)Nc1nonc1-c1ccccc1` (configuration not stated) gave a melting point of 206 °C.

Turning to `CCn1c(=NC(C)=O)c(-c2cc(OC)cc(OC)c2)cc2cnc(SC)nc21`, the melting point lay in the range of 145 to 150 °C.

Take `CCCCC(=O)c1c(-c2ccncc2)[nH]c(-c2ccncc2)c1C`: the melting point lay within 88 to 89 °C.

For `CCCCCCCCCCNC(=O)c1ccc(C(=O)NCCCCCCCCCC)c([N+](=O)[O-])c1`, the melting point fell in the range of 159 to 160 °C.

The molecule `COCCOCCOCCOCC(N)C(=O)O` (configuration not stated) had a melting point of 184 to 185 °C.

`CCN(CC)C(=S)Oc1ccc2c(c1)Oc1ccccc1S2` showed a melting point of 121 to 123 °C.

The molecule `O=Cc1c(Br)ncn1Cc1cc2c(cc1Cl)OCO2` came in with a melting point of 136 °C.

`CC(=O)c1ccc(N2Cc3ccccc3C2=O)cc1` returned a melting point of 235 to 237 °C.

The molecule `Cc1noc([C@H]2CC[C@@](C)(NCC(=O)N3C[C@@H](F)C[C@H]3C#N)C2(C)C)n1` showed a melting point of 147 to 151 °C.

`CCCCCCCCCCOc1ccc(OCc2ccccc2)c(C(=O)N(CC(=O)O)CC(=O)O)c1`: the melting point lay within 74 to 78 °C.

Molecule `NC(=O)N1C(=O)C(C(=O)c2cccs2)c2ncc(F)cc21` (configuration not stated) returned a melting point of 265 °C.

As for `Cc1cc(C)c(Nc2nc(C)ncc2S(=O)(=O)c2ccc(N3CCCC3)cc2)c(C)c1`, the melting point lay in the range of 196 to 198 °C.

In turn, `Cc1cc(SC(C)C)c(NC(=O)CCCCCCSc2nc3c(C)c(Cl)cc(C(C)C)c3o2)c(SC(C)C)n1` showed a melting point of 91 to 93 °C.

For the molecule `O=C(O)c1cc(OCc2ccccc2)c(-c2ccccc2)c([N+](=O)[O-])c1`, the melting point lay within 188 to 190 °C.

In the case of `CCOC(=O)c1sc(C)c(C(=O)OCC)c1OC`, the melting point is 109 to 111 °C.

Consider `COC1=C(C)C(=O)C(OC)=C(CCCCCC2=C(OC)C(=O)C(C)=C(OC)C2=O)C1=O`, for which the melting point is 84 to 86 °C.

With `COc1cc(C=O)c([N+](=O)[O-])cc1OCCCl`, the melting point fell in the range of 148 to 150 °C.

On to `CC(C)(C)OC(=O)COc1ccc(C(=O)NNC(=O)c2ccc(CNC(=O)OC(C)(C)C)cc2)cc1OCC(=O)OC(C)(C)C`, for which the melting point lay in the range of 156 to 158 °C.

`CNC(=O)N1CC(Oc2cccc(F)c2)C1` had a melting point of 155 to 156 °C.

For `CN(C)C(=O)COC(=O)COc1ccc(C(=O)Nc2ccccc2Sc2ccccc2-c2nnn[nH]2)cc1`, the melting point is 205 to 206 °C.

`O=C1c2cccc3cc4c([N+](=O)[O-])cccc4c(c23)C(=O)N1CCNCCCNCCN1C(=O)c2cccc3cc4c([N+](=O)[O-])cccc4c(c23)C1=O` registered a melting point of more than 340 °C.

On to `NS(=O)(=O)Oc1ccc2c(C3CCCCC3)csc2c1`, for which the melting point was 128 °C.

`CCCCOc1cc(C(=O)NCCN(CC)CC)cc(S(N)(=O)=O)c1Cc1ccccc1` returned a melting point of 163 °C.

`COc1ccc(F)c(/C=C/CN2C(=O)c3ccccc3C2=O)c1` showed a melting point of 118 °C.

`Cc1nc2cc(NC(=O)c3cc4cc(F)ccc4n3Cc3cccc(F)c3)ccn2c1C`: the melting point lay within 251 to 253 °C.

`CCCCc1nc2c(N)nc3cccnc3c2n1CCNC(=O)C(N)CC(C)C` (configuration not stated) yielded a melting point of 60 to 65 °C.

For `CCOC(=O)C(C)(C)NC(=O)c1nnc2ccc(NCCCN3CCC(OC(c4ccccc4)c4ccccc4)CC3)nn12`, the melting point was in the range of 165 to 167 °C.

With `COC(=O)C1=C(C)NC(C#N)=C(C(=O)OC)C1c1cccc([N+](=O)[O-])c1` (configuration not stated), the melting point is 206 to 207 °C.

`C=CCN1C2CCC1C1CCC2N1C(c1ccc(C(=O)N2CCCC2)cc1)c1cccc(O)c1` (configuration not stated) came in with a melting point of 156 to 158 °C.

For the molecule `O=C1CCS(=O)(=O)C(CC(=O)c2ccccc2)C1` (configuration not stated), the melting point fell in the range of 158 to 159 °C.

Consider `COc1cc2oc(=O)c(CCO)c(C)c2cc1OC`, for which the melting point was in the range of 184 to 187 °C.

As for `CSSc1ccc([N+](=O)[O-])cc1`, the melting point was 42.9 to 44.3 °C.

On to `Nc1nc2c(Cl)ncnc2n1C1OC(CO)C(O)C1O` (configuration not stated), for which the melting point was in the range of 214 to 217 °C.

`O=S1(=O)N=CN(C2CCCC2)c2ccc(Cl)cc21` showed a melting point of 218 to 220 °C.

In turn, `CC(=O)CN1C(=O)COc2ccccc21` came in with a melting point of 74 to 76 °C.

Regarding `COc1ccc(CO)nc1I`, the melting point was in the range of 106 to 108 °C.

`NC(=O)CN1C[C@@H](c2ccccc2)CC1=O` gave a melting point of 108 °C.

`O=C(NN1CCCCC1)C1=NN(c2ccc(Cl)cc2Cl)C(c2ccc(Cl)cc2)C1` (configuration not stated) showed a melting point of 75 to 78 °C.

`CCc1cc2oc(=O)c([N+](=O)[O-])c(O)c2cc1CC` registered a melting point of 115 to 117 °C.

The molecule `CCCOc1nn(-c2ccc(C(F)(F)F)cn2)cc1CCCOc1ccc(CCC(=O)O)c(OCC)c1` showed a melting point of 112 to 113 °C.

The molecule `COc1cc(CO)nnc1OC` had a melting point of 151 to 153 °C.

As for `OC1c2ccccc2Sc2ccccc21`, the melting point was in the range of 102 to 105 °C.

The molecule `Cc1cc(C2(c3cccc(-c4cncnc4)c3)N=C(N)N(C)C2=O)ccc1O[C@H](C)c1ccccc1` (some centres not stated) gave a melting point of 112 to 114 °C.

In turn, `O=C1CCN(c2cc3c(cc2-c2ccc(F)cc2)NC(=O)CC(c2cccc(-n4ccnc4)c2)=N3)CC1` had a melting point of 204 °C.

On to `Fc1cccc(OC2CN(C(c3ccccc3)c3ccccc3)C2)c1`, for which the melting point lay within 81 to 82 °C.

`CNC(=N)Nc1nc(-c2ccc(OC)cc2)c(-c2ccc(OC)cc2)s1` displayed a melting point of 155 to 157 °C.

For `COc1cc(/C=C(\C)C(=O)O)c2cccc(C(C)C)c2c1O`, the melting point fell in the range of 195 to 196 °C.

`CC(=O)NCCCC(=O)NCCCC(=O)c1ccc(Cl)cc1CCC(=O)O` yielded a melting point of 108 °C.

`O=C(NCc1ccccn1)Nc1cc(N2C(=O)C3(CCCC3)c3ccccc32)ccn1` gave a melting point of 135 °C.

`COC(=O)c1ccc(F)c2c1CC(N(CCCc1c[nH]c3ccc(F)cc13)C1CCC1)CO2` (configuration not stated) yielded a melting point of 110 °C.

`Cc1c(C)c2c(c(C)c1N)CC(C)(CN1CCN(C(=O)CCC(c3ccccc3)c3ccccc3)CC1)O2` (configuration not stated) gave a melting point of 135 to 138 °C.

For the molecule `CN1CCc2c(c3cc(Cl)ccc3n2CCC#N)C1`, the melting point fell in the range of 127 to 129 °C.

`O=Cc1c(N2CCCC2)n(C2OC(CO)C(O)C2O)c2cc(Cl)c(Cl)cc12` (configuration not stated) yielded a melting point of 131 to 134 °C.

`CC(=O)N1CCCC1c1ccnc(-c2nc(=O)c3ccccc3s2)c1` (configuration not stated) gave a melting point of 206 to 207 °C.

Molecule `CNC(=O)n1ccc(O)cc1=O` gave a melting point of 268 °C.

`O=S(=O)(Nc1cnc(Oc2cc3ccccc3cn2)c(Cl)c1)c1ccc(Cl)cc1Cl` had a melting point of 203 to 205 °C.

Turning to `CC(C)(C)n1nc2c(=O)[nH]c3ccccc3c2c1CO`, the melting point was 295 to 297 °C.

Regarding `COc1ccc(-c2ccc3c(N4CCOC[C@@H]4C)nc(N4CCOC[C@@H]4C)nc3n2)cc1CO`, the melting point was in the range of 202 to 205 °C.

`O=C1Nc2sccc2C(=O)N2CC[C@@H]12` returned a melting point of 272 to 274 °C.

`CC(C)(C)c1cc(C(=O)c2ccc(Cl)cc2)cc(CN2CCOCC2)c1O` showed a melting point of 165 to 166 °C.

For the molecule `CCOC1=NS(=O)(=O)C(C(=O)OC(C)(C)C)=C1N`, the melting point was 128 to 130 °C.

Take `NC(=O)O[C@@](c1cc(F)cc(Cl)c1)(c1cc2cn[nH]c2cc1F)[C@@H]1CCCCN1`: the melting point stood at 220 °C.

Source of the values: a melting point compilation (Tetko et al.; mined from patent text by program, amines drawn as free bases though some values may be those of a salt).
